Experimental data as given in patent publication US20160355782A1, “METHOD FOR ENHANCING DIFFERENTIATION OF DOPAMINERGIC NEURONS” (Buddhist Tzu Chi Medical Foundation, priority 2015, published 2016).

What was measured:
VM precursor cultures [1] = assay: Real-time RT-PCR analysis of VM precursor cultures; assay type: cell-based, rat; conditions: 1.25 mM SB, 3 days
[2] = tested on: Nurr1 complexes in VM precursor cells; assay: Immuno-precipitation with anti-Nurr1 antibody in VM precursor cells; assay type: cell-based, rat; conditions: UCN, 24 hours
Experimental: For immuno-precipitation, VM precursor cells were treated with UCN for 24 hours and then harvested with M-PER® Mammalian Protein Extraction Reagent (Pierce, Rockford, Ill.) containing 1 mM PMSF, 10 μg/mL aprotinin, 10 μg/mL leupeptin, and 5 μg/mL pepstatin A. The cytosolic lysates (250 μg of protein) were incubated with a rabbit anti-Nurr1 antibody (Santa Cruz Biotechnology) with gentle rocking overnight at 4° C. PureProteome™ protein G magnetic beads (Merck Millipore, Billerica, Mass.) were added (15 μL of suspension) and rotated for 3 h at 4° C. After washing the beads with ice-cold immuno-precipitation buffer (20 mM Tris, pH 7.5, 150 mM NaCl, 1 mM EDTA, 1 mM EGTA, 1% Triton X-100, 2.5 mM sodium pyrophosphate, 1 mM β-glycerolphosphate, 1 mM Na3VO4, 1 μg/mL leupeptin, 1 mM PMSF), immuno-precipitated proteins were eluted in sample buffer, and subjected to Western blot analyses with anti-MeCP2, -CoREST, -HDAC1, -Nurr1, -Foxa2, or -Pitx3 antibodies.

[3] = tested on: acetylated histone H3 (Ac-H3); assay: Histone H3 acetylation (Western blot, immuno-staining) in VM precursor cultures; assay type: cell-based, rat
Experimental: For immuno-cytochemistry, cells were fixed with 4% paraformaldehyde followed by blocking with PBS containing 0.4% Triton X-100, 3% normal goat serum and 2% bovine serum albumin (BSA) for 1 h at room temperature. After blocking, cells were incubated overnight at room temperature with primary antibodies. Primary antibodies were rabbit anti-UCN (1:200), mouse anti-TH (1:2000) (both from Sigma-Aldrich), goat anti-CRHR1 (1:100), rabbit anti-CRHR2 (1:250), rat anti-dopamine transporter (DAT, 1:200), chicken anti-MAP2 (1:5000) (all from Abcam, Cambridge, Mass.), rabbit anti-Nurr1 (1:100, Santa Cruz Biotechnology), mouse anti-Nurr1 (1:100, R&D Systems, Minneapolis, Minn.), rabbit anti-TH (1:1000), mouse anti-NeuN (1:200) (both from Chemicon, Temecula, Calif.), rabbit anti-acetyl-histone H3 (1:1000, Upstate Biotechnology, Lake Placid, N.Y.), rabbit anti-Foxa2 (1:500, Cell Signaling Technology), and rabbit anti-Pitx3 (1:100, Invitrogen).
(§1) For Western blot analysis, VM precursor cells were lysed in M-PER® Mammalian Protein Extraction Reagent (Pierce). Protein concentration was determined by Bradford assay (Bio-Rad, Hercules, Calif.). 30˜50 μg of protein sample was separated on 10˜12% sodium dodecyl sulphate-polyacrylamide gel (SDS-PAGE) and transferred to immobilon polyvinylidene difluoride (PVDF) membranes (Merck Millipore). The membranes were incubated in Tris-buffered saline (TBST, 0.1 M Tris/HCl, pH 7.4, 0.9% NaCl, 0.1% Tween 20) supplemented with 5% non-fat dry milk for 1 h to block nonspecific binding. […] The antigen-antibody complex was detected by using an ECL chemi-luminescence detection system (PerkinElmer, Boston, Mass.). The intensity of the bands was quantified with a GS-800 calibrated densitometer (Bio-Rad), and calculated as the optical density X area of bands.

VM precursor cultures [4] = assay: DA uptake assay in VM precursor cultures; assay type: cell-based, rat; conditions: 1 μM UCN, 4 days
Experimental: For DA uptake assay, cells were washed twice with warm Krebs-Ringer buffer (16 mM sodium phosphate, 119 mM NaCl, 4.7 mM KCl, 1.8 mM CaCl2, 1.2 mM MgSO4, 1.3 mM EDTA and 5.6 mM glucose, pH 7.4), and then incubated with 1 μM [^3H]-dopamine(DA)(60 Ci/mmol, PerkinElmer) in Krebs-Ringer buffer at 37° C. for 20 min. After washing with ice-cold Krebs-Ringer buffer, cells were collected in 1 N NaOH and radioactivity was counted with a liquid scintillation counter. Non-specific uptake was determined in parallel wells that received both the tritiated tracer and 10 μM mazindol. The specific [^3H] DA were calculated by subtracting the amount of radioactivity obtained in the presence of mazindol from that obtained in the absence of mazindol.

[5] = tested on: human DA neuroblastoma SH-SY5Y cells; assay: Western blot of TH protein in SH-SY5Y cells; assay type: cell-based; conditions: UCN vs control medium
Experimental: Human DA neuroblastoma SH-SY5Y cells were grown in Minimal Essential Medium (MEM)/F12 medium containing 10% FBS, 2 mM L-glutamine, 100 μM nonessential amino acids, 100 U/mL penicillin, and 100 μg/mL streptomycin. Cells were incubated at 37° C. under saturating humidity in 5% CO2/95% air.
as §1

rat TH promoter = assay: ChIP at the TH promoter with chromatin from E15.5 VM tissue of treated embryos; assay type: in vivo; conditions: 10 μg/kg UCN i.p. every 24 h for 3 days
Experimental: VM precursor cultures were treated with 1 μM UCN for about 1 to 2 days. VM cells for ChIP from rat embryos, the pregnant rats on day 12.5 of gestation were intra-peritoneally injected with saline as control or 10 μg/kg UCN as treatment every 24 h for 3 days before sacrifice. The ventral mesencephalon from E15.5 embryos was dissected. Cells were cross-linked with 1% formaldehyde, and stored at −80° C. before use.
Chromatin immuno-precipitation (ChIP) assays were performed using SimpleChIP® Enzymatic Chromatin IP kit (Cell Signaling Technology, Beverly, Mass.) by the instruction of the kit. Briefly, cross-linked chromatin in the cells was enzymatic digested to generate fragments with a length of approximately 150-900 bp (1 to 5 nucleosomes). The chromatin was subjected to immuno-precipitation using the following antibodies: anti-Nurr1 (Santa Cruz), anti-acetyl histone H3 (Ac-H3), anti-HDAC1, anti-CoREST (all from Upstate Biotechnology), anti-MeCP2 (Chemicon,), anti-Foxa2 (Cell signaling Technology), anti-Pitx3, and IgG (both from Abcam). Immuno-precipitated DNA fragments were collected by protein G magnetic beads. DNA/protein complexes were eluted from the beads and reverse cross-linked at 65° C. for 2 h in the presence of proteinase K. Purified DNA were subjected to real-time PCR using primers specific to rat TH promoter loci (referring to Table 2). […]

| Compound | TH mRNA expression (VM precursor cultures [1]) | amount of Foxa2 that precipitates with Nurr1 [2] | interaction between Pitx3 and Nurr1 proteins [2] | Ac-H3-immuno-reactivity in non- or Nurr1-expressing cells ([3]; 1 μM UCN, 1 hour) | levels of Ac-H3 (Western blot) ([3]; 1 μM UCN, within minutes) | duration of histone H3 acetylation ([3]; single application of UCN) | DAT-mediated specific DA uptake (VM precursor cultures [4]) | TH protein levels [5] | Nurr1 binding to the TH promoter regions (NB2, NB3 and repeated CpGs) (rat TH promoter) | histone H3 acetylation in TH promoter regions (rat TH promoter) |
| --- | --- | --- | --- | --- | --- | --- | --- | --- | --- | --- |
| CCCC(=O)[O-].[Na+] [SB, sodium butyrate, reference compound] | markedly upregulated | – | – | – | – | – | – | – | – | – |
| Urocortin [UCN] | – | markedly enhanced | not significantly altered | increased | significantly increases | at least 48 hours | significantly enhanced | induced the increases | more abundant | significantly increased |
